{
  "source": "patent US11351271B2",
  "about": "“RNA-based logic circuits with RNA binding proteins, aptamers and small molecules” (priority 2014, dated 2022)",
  "key": {"[1]": {"tested_on": "DDe (human estrogen receptor ligand binding domain) fused to Fluc2", "conditions": "C2C12"}, "[2]": {"tested_on": "DDd-L7Ae", "assay": "DDd-L7Ae OFF switch on replicon in myotubes differentiated from C2C12", "type": "cell-based"}, "[3]": {"tested_on": "DDd-L7Ae"}},
  "data": [
    {"smiles": "CC/C(=C(\\c1ccc(O)cc1)c1ccc(OCCN(C)C)cc1)c1ccccc1", "note": "[4-OHT, 4-hydroxytamoxifin]", "values": [
      {"measurement": "Increase of DDe-Fluc2 expression compared to no small molecule", "setting": "[1]", "value": 6.4, "unit": "fold"}
    ]},
    {"smiles": "O=C1Nc2ccc3ncsc3c2/C1=C/c1cnc[nH]1", "note": "[C16]", "values": [
      {"measurement": "Effect on expression and fold change of the DDd-L7Ae circuit", "setting": "[2]; myotubes", "value": "increase expression and overall fold change"}
    ]},
    {"smiles": "COc1cc(Cc2cnc(N)nc2N)cc(OC)c1OC", "note": "[TMP, trimethoprim]", "values": [
      {"measurement": "Decrease in expression after addition of TMP", "setting": "[2]; mouse myotubes, optimized circuit with PKR inhibitors", "value": 15, "unit": "fold"},
      {"measurement": "Repression of reporter upon addition of TMP", "setting": "[3]", "value": 22.5, "unit": "fold"}
    ]}
  ]
}
